By IC50 is commonly meant the concentration needed to halve the response being measured.

Structures are written as SMILES. Bounds are passed on as bounds.

The target of the test is T1, Full-length USP19 (Homo sapiens, UniProt O94966).
T1 construct: Full-length USP19 was purchased from Boston Biochem (E-576); purchased Boston Biochem E-576
T1 sequence (O94966 1-1318): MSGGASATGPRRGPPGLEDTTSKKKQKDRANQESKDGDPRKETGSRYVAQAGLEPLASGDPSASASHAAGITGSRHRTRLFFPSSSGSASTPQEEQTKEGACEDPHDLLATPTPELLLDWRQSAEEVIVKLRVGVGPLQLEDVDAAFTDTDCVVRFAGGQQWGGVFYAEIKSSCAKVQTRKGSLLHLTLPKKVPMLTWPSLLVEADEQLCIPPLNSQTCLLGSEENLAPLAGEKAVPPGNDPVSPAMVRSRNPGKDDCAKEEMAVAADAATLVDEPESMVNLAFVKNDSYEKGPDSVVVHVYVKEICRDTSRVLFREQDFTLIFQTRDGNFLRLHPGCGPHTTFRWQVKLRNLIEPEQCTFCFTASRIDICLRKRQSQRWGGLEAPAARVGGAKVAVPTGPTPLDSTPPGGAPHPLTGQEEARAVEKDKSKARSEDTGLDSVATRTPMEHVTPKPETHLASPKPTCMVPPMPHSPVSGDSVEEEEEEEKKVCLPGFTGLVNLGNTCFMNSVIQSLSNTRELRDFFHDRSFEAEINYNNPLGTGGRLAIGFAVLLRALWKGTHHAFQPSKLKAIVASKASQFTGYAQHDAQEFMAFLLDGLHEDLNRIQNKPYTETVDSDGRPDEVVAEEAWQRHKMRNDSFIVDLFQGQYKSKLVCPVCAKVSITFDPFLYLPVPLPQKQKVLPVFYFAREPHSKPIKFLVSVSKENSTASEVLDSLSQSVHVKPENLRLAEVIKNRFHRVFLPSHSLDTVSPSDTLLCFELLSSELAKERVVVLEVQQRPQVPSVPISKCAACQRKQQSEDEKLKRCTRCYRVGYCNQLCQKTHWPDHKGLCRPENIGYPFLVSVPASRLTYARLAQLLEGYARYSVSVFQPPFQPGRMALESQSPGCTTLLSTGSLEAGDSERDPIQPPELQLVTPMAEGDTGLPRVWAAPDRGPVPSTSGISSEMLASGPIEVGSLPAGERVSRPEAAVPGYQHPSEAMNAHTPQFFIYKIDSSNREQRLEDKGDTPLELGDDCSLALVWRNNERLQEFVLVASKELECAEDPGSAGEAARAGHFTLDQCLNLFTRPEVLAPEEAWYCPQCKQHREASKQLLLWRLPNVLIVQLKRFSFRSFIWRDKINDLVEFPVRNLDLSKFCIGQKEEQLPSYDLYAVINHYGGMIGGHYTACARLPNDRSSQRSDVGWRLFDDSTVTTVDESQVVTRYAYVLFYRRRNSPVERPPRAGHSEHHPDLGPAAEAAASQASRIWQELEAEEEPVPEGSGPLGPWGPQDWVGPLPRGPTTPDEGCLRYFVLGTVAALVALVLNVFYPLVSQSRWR
The test can be described thus: USP19 fluorescence polarisation (FP) assay, Ubiquitin-Lys-TAMRA substrate. Format: biochemical. Conditions: average of at least two duplicate experiments. The essentials: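 Full-length human USP19 (added at 2.5 nM) was preincubated 30 min at RT with inhibitor (serial dilutions 200 μM to 2 μM) in 50 mM HEPES pH 7.4, 150 mM NaCl, 5 mM DTT, 0.05% BSA, 0.05% CHAPS. Ubiquitin-Lys-TAMRA isopeptide substrate (added at 500 nM) started the reaction, and FP (Ex 530/Em 575 nm) was read every 15 min over 90 min. IC50 came from non-linear regression of signal normalised to no-compound control, averaged over at least two duplicate experiments.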
For `C[C@H](CC(F)(F)F)C(=O)N1CCC(Cn2cnc(-c3ccccc3)cc2=O)C2(CCCC2)C1` (stereo partly drawn) [Example 4, 6-Phenyl-3-((7-((R)-4,4,4-trifluoro-2-methylbutanoyl)-7-azaspiro[4.5]decan-10-yl)methyl)pyrimidin-4(3H)-one], the IC50 lay within 1000 to 20000 nM.

Regarding `C[C@H]1CN(C(=O)N2CC[C@@H](Cn3cnc4ccc(F)cc4c3=O)C3(CCCC3)C2)[C@H](c2cc(F)ccc2F)CO1` [Example 200, 3-(((R)-7-((2S,5R)-5-(2,5-Difluorophenyl)-2-methylmorpholine-4-carbonyl)-7-azaspiro[4.5]decan-10-yl)methyl)-6-fluoroquinazolin-4(3H)-one], the half-maximal inhibitory concentration (IC50) lay within 10 to 100 nM.

For the compound `COc1ccccc1-c1cc(=O)n(C[C@@H]2CCN(C(=O)N3CC[C@@H](NCC(F)F)C[C@H]3c3cc(F)ccc3F)CC23CCCC3)cn1` [Example 134, 3-(((R)-7-((2S,4R)-4-((2,2-Difluoroethyl)amino)-2-(2,5-difluorophenyl)piperidine-1-carbonyl)-7-azaspiro[4.5]decan-10-yl)methyl)-6-(2-methoxyphenyl)pyrimidin-4(3H)-one], the concentration for half-maximal inhibition (IC50) was below 10 nM.

Take `CN[C@@H]1CCN(C(=O)N2CC[C@@H](Cn3cnc(C(F)F)cc3=O)C3(CCCC3)C2)[C@H](c2ccc(F)cc2F)C1` [Example 130, 6-(Difluoromethyl)-3-(((R)-7-((2S,4R)-2-(2,4-difluorophenyl)-4-(methylamino)piperidine-1-carbonyl)-7-azaspiro[4.5]decan-10-yl)methyl)pyrimidin-4(3H)-one]: the IC50 was below 10 nM.

In the case of `COc1ccccc1-c1cc(=O)n(C[C@]2(OC)CCN(C(=O)N3CCNC[C@H]3c3cc(F)ccc3F)CC23CCCC3)cn1` [Example 187, 3-(((S)-7-((R)-2-(2,5-Difluorophenyl)piperazine-1-carbonyl)-10-methoxy-7-azaspiro[4.5]decan-10-yl)methyl)-6-(2-methoxyphenyl)pyrimidin-4(3H)-one], the IC50 was below 10 nM.

As to `CN[C@@H]1CCN(C(=O)N2CC[C@@H](Cn3cnc(-c4ccccc4F)cc3=O)C3(CCCC3)C2)[C@H](c2ccc(F)c(F)c2)C1` [Example 142, 3-(((R)-7-((2S,4R)-2-(3,4-Difluorophenyl)-4-(methylamino)piperidine-1-carbonyl)-7-azaspiro[4.5]decan-10-yl)methyl)-6-(2-fluorophenyl)pyrimidin-4(3H)-one], the IC50 was below 10 nM.

Take `CN[C@@H]1CCN(C(=O)N2CC[C@@H](Cn3cnc(-c4ccccc4OC)cc3=O)C3(CCCC3)C2)[C@H](c2cc(F)ccc2F)C1` [Example 99, 3-(((R)-7-((2S,4R)-2-(2,5-Difluorophenyl)-4-(methylamino)piperidine-1-carbonyl)-7-azaspiro[4.5]decan-10-yl)methyl)-6-(2-methoxyphenyl)pyrimidin-4(3H)-one]: the IC50 is below 10 nM.

For `C[C@@]1(O)CCN(C(=O)N2CC[C@@H](Cn3ccc(-c4ccccc4)cc3=O)C3(CCCC3)C2)[C@H](c2ccccc2)C1` [Example 52, 1-(((R)-7-((2S,4R)-4-Hydroxy-4-methyl-2-phenylpiperidine-1-carbonyl)-7-azaspiro[4.5]decan-10-yl)methyl)-4-phenylpyridin-2(1H)-one], the IC50 lay in the range of 100 to 1000 nM.

For the compound `CC1(N[C@@H]2CCN(C(=O)N3CC[C@@H](Cn4ccc(-c5ccccc5)cc4=O)C4(CCCC4)C3)[C@H](c3ccccc3)C2)COC1` [Example 111, 1-(((R)-7-((2S,4R)-4-((3-Methyloxetan-3-yl)amino)-2-phenylpiperidine-1-carbonyl)-7-azaspiro[4.5]decan-10-yl)methyl)-4-phenylpyridin-2(1H)-one], the IC50 was below 10 nM.

On to `CN[C@@H]1CCN(C(=O)N2CC[C@@H](Cn3cnc(-c4ccccc4OC)cc3=O)C3(CCCC3)C2)[C@H](c2cccc(F)c2)C1` [Example 102, 3-(((R)-7-((2S,4R)-2-(3-Fluorophenyl)-4-(methylamino)piperidine-1-carbonyl)-7-azaspiro[4.5]decan-10-yl)methyl)-6-(2-methoxyphenyl)pyrimidin-4(3H)-one], for which the IC50 is below 10 nM.

Turning to `CN[C@@H]1CCN(C(=O)N2CC[C@@H](Cn3cnc(-c4ccccc4C)cc3=O)C3(CCCC3)C2)[C@H](c2cccc(F)c2)C1` [Example 119, 3-(((R)-7-((2S,4R)-2-(3-Fluorophenyl)-4-(methylamino)piperidine-1-carbonyl)-7-azaspiro[4.5]decan-10-yl)methyl)-6-(0-tolyl)pyrimidin-4(3H)-one], the IC50 was below 10 nM.

For `CN[C@@H]1CCN(C(=O)N2CC[C@@H](Cn3cnc(-c4ccccc4OC)cc3=O)C3(CCCC3)C2)[C@H](c2ccc(F)c(F)c2)C1` [Example 138, 3-(((R)-7-((2S,4R)-2-(3,4-Difluorophenyl)-4-(methylamino)piperidine-1-carbonyl)-7-azaspiro[4.5]decan-10-yl)methyl)-6-(2-methoxyphenyl)pyrimidin-4(3H)-one], the IC50 is below 10 nM.

Take `O=C(N1CC[C@@H](Cn2ccc(Cl)cc2=O)C2(CCCC2)C1)N1CC[C@@H](NCC(F)F)C[C@H]1c1cc(F)ccc1F` [Example 185, 4-Chloro-1-(((R)-7-((2S,4R)-4-((2,2-difluoroethyl)amino)-2-(2,5-difluorophenyl)piperidine-1-carbonyl)-7-azaspiro[4.5]decan-10-yl)methyl)pyridin-2(1H)-one]: the IC50 lay in the range of 10 to 100 nM.

For the compound `CN[C@@H]1CCN(C(=O)N2CC[C@@H](Cn3cnc(-c4ccccc4C)cc3=O)C3(CCCC3)C2)[C@H](c2ccccc2)C1` [Example 84, 3-(((R)-7-((2S,4R)-4-(Methylamino)-2-phenylpiperidine-1-carbonyl)-7-azaspiro[4.5]decan-10-yl)methyl)-6-(o-tolyl)pyrimidin-4(3H)-one], the IC50 was below 10 nM.

For `CN(C)C(=O)[C@@H]1CCN(C(=O)N2CC[C@@H](Cn3cnc(-c4ccccc4)cc3=O)C3(CCCC3)C2)[C@H](c2ccccc2)C1` [Example 177, (2S,4R)-N,N-Dimethyl-1-((R)-10-((6-oxo-4-phenylpyrimidin-1(6H)-yl)methyl)-7-azaspiro[4.5]decane-7-carbonyl)-2-phenylpiperidine-4-carboxamide], the IC50 was in the range of 1000 to 20000 nM.

With `CC(=O)N[C@@H]1CCN(C(=O)N2CC[C@@H](Cn3cnc(-c4ccccc4)cc3=O)C3(CCCC3)C2)[C@H](c2cc(F)ccc2F)C1` [Example 155, N-((2S,4R)-2-(2,5-Difluorophenyl)-1-((R)-10-((6-oxo-4-phenylpyrimidin-1(6H)-yl)methyl)-7-azaspiro[4.5]decane-7-carbonyl)piperidin-4-yl)acetamide], the IC50 was below 10 nM.

With `CN[C@@H]1CCN(C(=O)N2CCC(Cn3ccc(-c4ccccc4)cc3=O)CC2)[C@H](c2ccccc2)C1` [Example 47, 1-((1-((2S,4R)-4-(Methylamino)-2-phenylpiperidine-1-carbonyl)piperidin-4-yl)methyl)-4-phenylpyridin-2(1H)-one], the IC50 was below 10 nM.

With `O=C(N1CC[C@@H](Cn2cnc(-c3ccccc3)cc2=O)C2(CCCC2)C1)N1CC[C@@H](NCc2ccncn2)C[C@H]1c1cc(F)ccc1F` [Example 170, 3-(((R)-7-((2S,4R)-2-(2,5-Difluorophenyl)-4-((pyrimidin-4-ylmethyl)amino)piperidine-1-carbonyl)-7-azaspiro[4.5]decan-10-yl)methyl)-6-phenylpyrimidin-4(3H)-one], the 50% inhibitory concentration (IC50) was below 10 nM.

As to `CC(=O)N[C@@H]1CCN(C(=O)N2CC[C@@H](Cn3cnc4ccc(F)cc4c3=O)C3(CCCC3)C2)[C@H](c2cc(F)ccc2F)C1` [Example 172, N-((2S,4R)-2-(2,5-Difluorophenyl)-1-((R)-10-((6-fluoro-4-oxoquinazolin-3(4H)-yl)methyl)-7-azaspiro[4.5]decane-7-carbonyl)piperidin-4-yl)acetamide], the IC50 was below 10 nM.
